Test systems include MDA-MB-231 breast; UO-31 renal; OVCAR-3 ovarian; K-562 leukemia; UACC-62 melanoma; HL-60(TB) leukemia; MDA-N; UACC-257 melanoma; HS 578T breast; CCRF-CEM leukemia; SK-MEL-28 melanoma; OVCAR-4 ovarian; NCI/ADR-RES ovarian; MOLT-4 leukemia; SR leukemia; OVCAR-5 ovarian; PC-3 prostate; SW-620 colon; KM12 colon; HCT-15 colon.
What all share (experiment): growth of human tumour cells (NCI), 48 h

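Five compound concentrations were applied to cells in 96-well plates for 48 hours; endpoints were derived by simple linear interpolation of the resulting dose-response curve. Definition used: TGI = concentration required for complete inhibition of growth.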 A value given as a limit tells only on which side of the number the result lay.

Consider `CCOC(=O)N(NC(=O)NC(C)C)c1ccccc1`, for which the TGI in the test with MDA-MB-231 breast, with UO-31 renal, with OVCAR-3 ovarian, with K-562 leukemia, with UACC-62 melanoma and in the test with HL-60(TB) leukemia was over 100 µM throughout. Further, the TGI with MDA-N, in the test with UACC-257 melanoma, with HS 578T breast, in the test on CCRF-CEM leukemia, in the test with SK-MEL-28 melanoma and with OVCAR-4 ovarian was over 100 µM each time. Moreover, the TGI in the test on NCI/ADR-RES ovarian, with MOLT-4 leukemia, with SR leukemia, with OVCAR-5 ovarian, with PC-3 prostate and in the test on SW-620 colon was over 100 µM in each case. For the same molecule, the TGI with KM12 colon and with HCT-15 colon was over 100 µM each time.

Turning to `COc1nc(N=P(c2ccccc2)(c2ccccc2)c2ccccc2)cc(=O)[nH]1`, the TGI with MDA-MB-231 breast, with UO-31 renal, in the test on OVCAR-3 ovarian, with K-562 leukemia, in the test on UACC-62 melanoma and in the test with HL-60(TB) leukemia was over 100 µM each time. The TGI with MDA-N, in the test on UACC-257 melanoma, in the test with HS 578T breast, in the test on CCRF-CEM leukemia, in the test on SK-MEL-28 melanoma and in the test with OVCAR-4 ovarian was over 100 µM throughout. Further, the TGI in the test with NCI/ADR-RES ovarian, in the test on MOLT-4 leukemia, with SR leukemia, with OVCAR-5 ovarian, with PC-3 prostate and in the test with SW-620 colon was over 100 µM each time. Moreover, the TGI in the test with KM12 colon and in the test with HCT-15 colon was over 100 µM each time.

As to `O=c1[nH]nc(-c2ccccc2)n1/N=C/c1ccc([N+](=O)[O-])cc1`, the TGI is over 63.8 µM in the test on MDA-MB-231 breast; over 38.1 µM with UO-31 renal; over 100 µM in the test with OVCAR-3 ovarian; over 100 µM in the test on K-562 leukemia; over 100 µM in the test on UACC-62 melanoma; over 100 µM in the test with HL-60(TB) leukemia. In addition, the TGI in the test with MDA-N was over 100 µM; in the test on UACC-257 melanoma, over 100 µM; in the test with HS 578T breast, 98.2 µM; in the test on CCRF-CEM leukemia, over 100 µM; with SK-MEL-28 melanoma, over 100 µM; with OVCAR-4 ovarian, over 100 µM. Moreover, the TGI in the test with NCI/ADR-RES ovarian was over 68.9 µM; in the test on MOLT-4 leukemia, over 100 µM; in the test with SR leukemia it was over 100 µM; with OVCAR-5 ovarian, over 100 µM; in the test on PC-3 prostate it was over 100 µM; in the test on SW-620 colon it was over 100 µM. Further, the TGI with KM12 colon and in the test on HCT-15 colon was over 100 µM in each case.

For the molecule `O=C(O)c1ccccc1/C=N/NC1=NCCN1`, the TGI with MDA-MB-231 breast, in the test on UO-31 renal, with OVCAR-3 ovarian, with K-562 leukemia, in the test with UACC-62 melanoma and with HL-60(TB) leukemia was over 100 µM in each case. For the same molecule, the TGI in the test with MDA-N, in the test with UACC-257 melanoma, with HS 578T breast, in the test on CCRF-CEM leukemia, with SK-MEL-28 melanoma and with OVCAR-4 ovarian was over 100 µM throughout. Besides, the TGI in the test with NCI/ADR-RES ovarian, in the test with MOLT-4 leukemia, with SR leukemia, in the test with OVCAR-5 ovarian, in the test with PC-3 prostate and in the test with SW-620 colon was over 100 µM throughout. For the same molecule, the TGI with KM12 colon and in the test with HCT-15 colon was over 100 µM each time.

As for `CC1(C)C2CCC(CN)(C2)C1N` (centres undefined), the TGI with MDA-MB-231 breast, in the test with UO-31 renal, in the test with OVCAR-3 ovarian, in the test with K-562 leukemia, with UACC-62 melanoma and with HL-60(TB) leukemia was over 100 µM each time. The TGI in the test with MDA-N, in the test with UACC-257 melanoma, in the test on HS 578T breast, in the test on CCRF-CEM leukemia, in the test with SK-MEL-28 melanoma and in the test on OVCAR-4 ovarian was over 100 µM throughout. Moreover, the TGI in the test on NCI/ADR-RES ovarian, with MOLT-4 leukemia, in the test on SR leukemia, in the test on OVCAR-5 ovarian, in the test on PC-3 prostate and in the test with SW-620 colon was over 100 µM in each case. For the same molecule, the TGI in the test on KM12 colon and in the test with HCT-15 colon was over 100 µM throughout.

For the molecule `CC(C)NC(NC(C)C)=C(S(=O)(=O)C(F)(F)C(F)(F)C(F)(F)C(F)(F)F)S(=O)(=O)C(F)(F)C(F)(F)C(F)(F)C(F)(F)F`, the TGI with MDA-MB-231 breast, in the test with UO-31 renal, in the test with OVCAR-3 ovarian, in the test on K-562 leukemia, in the test on UACC-62 melanoma and with HL-60(TB) leukemia was over 100 µM throughout. In addition, the TGI in the test on MDA-N, in the test with UACC-257 melanoma, in the test with HS 578T breast, with CCRF-CEM leukemia, in the test on SK-MEL-28 melanoma and in the test with OVCAR-4 ovarian was over 100 µM each time. In addition, the TGI with NCI/ADR-RES ovarian, with MOLT-4 leukemia, in the test on SR leukemia, in the test with OVCAR-5 ovarian, in the test with PC-3 prostate and in the test with SW-620 colon was over 100 µM throughout. The TGI in the test with KM12 colon and in the test on HCT-15 colon was over 100 µM in each case.

With `O=C1CN(C(=O)C2CCCN2C(=O)C2CCCN2)C(=O)CN1` (centres undefined), the TGI in the test with MDA-MB-231 breast, in the test with UO-31 renal, in the test with OVCAR-3 ovarian, in the test with K-562 leukemia, in the test with UACC-62 melanoma and in the test on HL-60(TB) leukemia was over 100 µM in each case. Also, the TGI in the test with MDA-N, in the test on HS 578T breast, with CCRF-CEM leukemia, in the test on SK-MEL-28 melanoma, in the test with OVCAR-4 ovarian and in the test on NCI/ADR-RES ovarian was over 100 µM throughout. Moreover, the TGI in the test with MOLT-4 leukemia, in the test with SR leukemia, in the test with OVCAR-5 ovarian, with PC-3 prostate, with SW-620 colon and in the test with KM12 colon was over 100 µM each time. In the test with HCT-15 colon, this molecule returned a TGI of over 100 µM.

(Values after PubChem BioAssay (NCI).)
